Source: ChEMBL document CHEMBL4334514, “A Near-Complete Series of Four Atropisomeric Jozimine A2-Type Naphthylisoquinoline Dimers with Antiplasmodial and Cytotoxic Activities and Related Alkaloids from Ancistrocladus abbreviatus” (J Nat Prod, 2019)

How the values were obtained:
[1] = system: HT-29; assay: Cytotoxicity against human HT-29 cells assessed as reduction of cell viability measured after 16 hrs by crystal violet staining assay; assay type: functional, cell-based
[2] = system: Plasmodium falciparum; assay: Antiprotozoal activity against asexual erythrocytic form of chloroquine-sensitive Plasmodium falciparum NF54 clone A1A9 assessed as growth inhibition incubated for 42 hrs by [3H]-hypoxanthine incorporation assay; assay type: functional, organism-based
[3] = system: Leishmania donovani; assay: Antiprotozoal activity against Leishmania donovani MHOM/ET/67/L82 axenic amastigotes assessed as growth inhibition after 72 hrs by Alamar Blue dye-based fluorometric analysis; assay type: functional, organism-based
[4] = system: Plasmodium falciparum; assay: Antiprotozoal activity against chloroquine-sensitive Plasmodium falciparum NF54 assessed as growth inhibition incubated for 48 hrs by [3H]-hypoxanthine incorporation assay; assay type: functional, organism-based
[5] = system: Trypanosoma cruzi; assay: Antiprotozoal activity against Trypanosoma cruzi Tulahuen C4 amastigotes infected in rat L6 cells assessed as growth inhibition after 96 by photometric analysis; assay type: functional, organism-based
[6] = system: Trypanosoma brucei rhodesiense; assay: Antiprotozoal activity against Trypanosoma brucei rhodesiense STIB900 trypomastigotes assessed as growth inhibition after 72 hrs by Alamar Blue dye-based fluorometric analysis; assay type: functional, organism-based
[7] = system: L6; assay: Cytotoxicity against rat L6 cells assessed as reduction in cell viability after 72 hrs by Alamar blue dye-based fluorometric analysis
[8] = Selectivity index, ratio of IC50 for cytotoxicity against rat L6 cells to IC50 for antiprotozoal activity against Plasmodium falciparum NF54; assay type: toxicity, cell-based
[9] = system: HT-1080; assay: Cytotoxicity against human HT1080 cells assessed as reduction of cell viability measured after 16 hrs by crystal violet staining assay; assay type: functional, cell-based; conditions: HT-1080, 16 h
[10] = system: MM1.S; assay: Cytotoxicity against human MM1S cells assessed as reduction of cell viability incubated for overnight by MTT assay; assay type: functional, cell-based
[11] = Leishmania donovani, MHOM/ET/67/L82, 72 h
[12] = Trypanosoma cruzi, Tulahuen C4, L6

In the case of `COc1cc(O)c(-c2c(C)cc(OC)c3c(OC)cccc23)c2c1[C@H](C)N[C@H](C)C2`, the IC50 [1] is reported as “Not Active”.
Work on `COc1cccc2c(-c3ccc4c(c3O)[C@@H](C)N[C@H](C)C4)c(C)cc(OC)c12` [DIONCOPHYLLINE A] yielded an IC50 [2] of 3.8 µM.
With `CCCCCCCCCCCCCCCCOP(=O)([O-])OCC[N+](C)(C)C` [MILTEFOSINE] the IC50 [3, 11] was 0.8 µM.
In the case of `COc1cccc2c(-c3ccc4c(c3O)[C@@H](C)N[C@H](C)C4)c(C)c(-c3c(C)c(-c4ccc5c(c4O)[C@@H](C)N[C@H](C)C5)c4cccc(OC)c4c3O)c(O)c12` (stereo in doubt; 1b), the IC50 [4] is reported as 21 nM, the IC50 [5] is reported as 17.1 µM and the IC50 [6] is reported as 320 nM. The IC50 [7] was 4.3 µM and the “Ratio IC50” value [8] was 206.
In the case of `COc1cc(O)c2c(c1-c1c(C)cc(O)c3c(OC)cccc13)C[C@H](C)N[C@H]2C`, the IC50 [1] is reported as “Not Active”.
`O=C(Cn1ccnc1[N+](=O)[O-])NCc1ccccc1` [BENZNIDAZOLE] showed an IC50 [5, 12] of 2.6 µM.
With `COc1cccc2c(-c3ccc4c(c3O)[C@@H](C)N[C@H](C)C4)c(C)c(-c3c(C)c(-c4ccc5c(c4O)[C@@H](C)N[C@H](C)C5)c4cccc(OC)c4c3O)c(O)c12` (stereo in doubt; 1d) [listing 1 of 2 here] the inhibition [1] was “Dose-dependent effect”.
Work on `COc1cccc2c(-c3ccc4c(c3O)[C@@H](C)N[C@H](C)C4)c(C)c(-c3c(C)c(-c4ccc5c(c4O)[C@@H](C)N[C@H](C)C5)c4cccc(OC)c4c3O)c(O)c12` (stereo in doubt; 1a) yielded an IC50 [4] of 12 nM, an IC50 [5] of 14.9 µM and an IC50 [6] of 490 nM. For the same compound, the IC50 [3, 11] was over 100 µM, the IC50 [7] was 7.9 µM and the “Ratio IC50” value [8] was 660. The IC50 ([1]; read-out: IC50) was over 50 µM.
`COc1cccc2c(-c3ccc4c(c3O)[C@@H](C)N[C@H](C)C4)c(C)cc(O)c12` (stereo in doubt; 4a) showed an IC50 ([4]; Plasmodium falciparum, NF54) of 670 nM, an IC50 [5, 12] of 24.4 µM and an IC50 ([6]; Trypanosoma brucei, STIB900, 72 h) of 6100 nM. For the same compound, the IC50 [3, 11] was over 100 µM, the IC50 [7] was 9.1 µM and the “Ratio IC50” value [8] was 13.7.
With `COc1cccc2c(-c3ccc4c(c3O)[C@@H](C)N(C)[C@@H](C)C4)c(C)cc(OC)c12` the IC50 [1] was “Not Active”.
`COc1cccc2c(-c3ccc4c(c3O)[C@@H](C)N[C@H](C)C4)c(C)c(-c3c(C)c(-c4ccc5c(c4O)[C@@H](C)N[C@H](C)C5)c4cccc(OC)c4c3O)c(O)c12` (stereo in doubt; 1c) gave an IC50 [4] of 55 nM, an IC50 [5] of 8.1 µM and an IC50 [6] of 160 nM. The IC50 [3] was 65.2 µM, the IC50 [7] was 2.3 µM and the “Ratio IC50” value [8] was 41.6.
For `COc1cccc2c(-c3ccc4c(c3O)[C@@H](C)N[C@H](C)C4)c(C)cc(O)c12` (stereo in doubt; 4b), the IC50 [4] was 850 nM, the IC50 [5] was 45.1 µM and the IC50 [6] was 4800 nM. The IC50 [7] was 44.8 µM and the “Ratio IC50” value [8] was 52.7.
Work on `COc1cccc2c(-c3ccc4c(c3O)[C@@H](C)N[C@H](C)C4)c(C)c(-c3c(C)c(-c4ccc5c(c4O)[C@@H](C)N[C@H](C)C5)c4cccc(OC)c4c3O)c(O)c12` (stereo in doubt; 1d) [listing 2 of 2 here] yielded an IC50 [5] of 13.7 µM, an IC50 [6] of 820 nM and an IC50 [3] of 80.2 µM. The IC50 [7] was 15.9 µM, the “Ratio IC50” value [8] was 11400 and the IC50 ([1]; read-out: IC50) was 12 µM. It also gave an IC50 [9] of 9 µM and an IC50 [10] of 5 µM.
